Source: the NIST ThermoML archive (doi:10.1016/j.jct.2015.08.011)
± gives the expanded uncertainty stated by the source.

Assays:
[1] = 101.33 kPa, Liquid, Vibrating tube method
[2] = excess molar enthalpy (molar enthalpy of mixing); xn = mol fraction of the nth substance listed; conditions: 298.15 K, 101 kPa, Liquid, Flow calorimetry

SMILES: CO [methanol]
- mass density ([1]; 298.15 K): 786.2 ± 1.6 kg/m3

SMILES: COC(C)(C)CC(C)(C)C [methyl 1,1,3,3-tetramethylbutyl ether] + CO
- excess molar enthalpy ([2]; x2 = 0.051): 0.0476 ± 0.00335 kcal/mol
- excess molar enthalpy ([2]; x2 = 0.097): 0.0767 ± 0.00406 kcal/mol
- excess molar enthalpy ([2]; x2 = 0.193): 0.11 ± 0.0055 kcal/mol
- excess molar enthalpy ([2]; x2 = 0.299): 0.126 ± 0.00621 kcal/mol
- excess molar enthalpy ([2]; x2 = 0.391): 0.128 ± 0.00621 kcal/mol
- excess molar enthalpy ([2]; x2 = 0.489): 0.124 ± 0.00598 kcal/mol
- excess molar enthalpy ([2]; x2 = 0.591): 0.112 ± 0.0055 kcal/mol
- excess molar enthalpy ([2]; x2 = 0.695): 0.0966 ± 0.00478 kcal/mol
- excess molar enthalpy ([2]; x2 = 0.794): 0.0736 ± 0.00382 kcal/mol
- excess molar enthalpy ([2]; x2 = 0.896): 0.0425 ± 0.00239 kcal/mol

SMILES: COC(C)(C)CC(C)(C)C [methyl 1,1,3,3-tetramethylbutyl ether]
- mass density ([1]; 298.15 K): 792.4 ± 1.6 kg/m3
- mass density ([1]; 308.15 K): 784.1 ± 1.6 kg/m3
- mass density ([1]; 318.15 K): 776 ± 1.6 kg/m3
- mass density ([1]; 328.15 K): 767.6 ± 1.5 kg/m3
- mass density ([1]; 338.15 K): 759.2 ± 1.5 kg/m3
- mass density ([1]; 348.15 K): 750.7 ± 1.5 kg/m3
- mass density ([1]; 358.15 K): 742.1 ± 1.5 kg/m3
- mass density ([1]; 368.15 K): 733.4 ± 1.5 kg/m3
- mass density ([1]; 378.15 K): 724.5 ± 1.5 kg/m3
- mass density ([1]; 388.15 K): 715.5 ± 1.4 kg/m3
- mass density ([1]; 398.15 K): 706.3 ± 1.4 kg/m3
- mass density ([1]; 408.16 K): 696.8 ± 1.4 kg/m3
